Results on eight compounds are retold here after patent publication US9108947B2, “Inhibitors of the Renal Outer Medullary Potassium channel” (Merck Sharp & Dohme Corp., priority 2011, dated 2015).

Where two headings read alike, the source gives them in different places.

One assay has as its target hROMK (hKir1.1) (Homo sapiens (Human), UniProt P48048). Kind of assay: Thallium Flux Assay (ROMK channel functional thallium flux, FLIPR-Tetra). Type of assay: cell-based. To be noted: HEK293 cells stably expressing hROMK (hKir1.1); 30 min compound incubation. The source says: (§1) Several assays may be used to measure functional inhibition of the ROMK channel by compounds of the instant invention. One assay that can be used is an electrophysiology assay that measures the electrical current that is generated as potassium permeates through the channel. Another ROMK functional assay makes use of the ability of thallium to permeate through open ROMK channels and increase the fluorescence of a dye previously loaded into the cells. Under control conditions, cells loaded with dye and exposed to thallium-containing medium display a time-dependent increase in fluorescence, the rate of which depends on number of functional channels. When cells are incubated in the presence of a channel inhibitor, the increase in fluorescence is attenuated in a concentration-dependent manner, and IC50 values of inhibition by compounds can be accurately determined. This assay has been established with cell lines expressing either human, or rat ROMK channels, and operates in 384-well format.
HEK293 cells stably expressing hROMK (hKir1.1) were grown at 37° C. in a 10% CO2 humidified incubator in complete growth media: Dulbecco's Modified Eagle Medium supplemented with non-essential amino acids, Penicillin/Streptomycin/Glutamine, G418 and FBS. At >80% confluency, the media was aspirated from the flask and the sample was rinsed with 10 ml Calcium/Magnesium-free PBS. […] To dislodge the cell, the side of the flask was gently banged with a hand. The cells were triturated completely and then transferred to 25 ml complete media. The sample was then centrifuged at 1,500 rpm for 6 minutes, followed by resuspension in complete growth media and then cell concentration was determined. […] Under ideal growth conditions and appropriate tissue culture practices, this cell line is stable for 40-45 passages.
• FluxOR™ Reagent (Component A) • FluxOR™ Assay Buffer (Component B)—10× Concentrate • PowerLoad™ Concentrate (Component C)—100× Concentrate • Probenecid (Component D) Lyophilized sample is kept at −20° C. Water soluble, 100× after solubilization in 1 ml water. […] Store at 4° C. • Thallium sulfate (Tl2SO4) Concentrate (Component G)—50 mM in water. […] Can be stored at room temperature • Stimulant Buffer (prepared at 5× final concentration in 1× FluxOR™Chloride-Free Buffer): 7.5 mM Thallium sulfate and 0.75 mM Potassium sulfate (to give a final assay concentration of 3 mM Thallium 0.3 mM Potassium). Store at 4° C. when not in use. If kept sterile, this solution is good for months. Assay Protocol—
The ROMK channel functional thallium flux assay is performed in 384 wells, using the FLIPR-Tetra instrument. HEK-hKir1.1 cells are seeded in Poly-D-Lysine microplates and kept in a 37° C.-10% CO2 incubator overnight. On the day of the experiment, the growth media is replaced with the FluxOR™ reagent loading buffer and incubated, protected from light, at ambient temperature (23-25° C.) for 90 min. The loading buffer is replaced with assay buffer±test compound followed by 30 min incubation at ambient temperature, where the Thallium/Potassium stimulant is added to the microplate.
• 1. Seed HEK-hKir1.1 cells (50 μl at 20,000 cells/well) in 384-well PDL coated Microplates • 2. Allow cells to adhere overnight in humidified 37° C./10% CO2 incubator • 3. Completely remove cell growth media from microplate and replace with 25 μl loading buffer • 4. Incubate Microplate at room temperature, protected form light, for 90 min • 5. Remove loading buffer and replace with 25 μl 1× Assay Buffer±test compound. • 6. Incubate microplate at room temperature, protected form light, for 30 min • 7. […] Excitation=400 nm, Emission=460 & 580 nm. Collect data for 10 min. Data Calculation—
The fluorescence intensity of wells containing 3 μM of a standard control ROMK inhibitor of the present invention is used to define the ROMK-sensitive component of thallium flux. Fluorescence in the presence of test compounds is normalized to control values to provide % fluorescence change.

Another assay deals with Kir1.1 (ROMK1) (Homo sapiens (Human), UniProt P48048). Nature of the assay: Electrophysiology Assay (whole cell voltage clamp, IonWorks Quattro). Type of assay: cell-based.
Chain of Kir1.1 (ROMK1) (P48048 whole entry, species assumed): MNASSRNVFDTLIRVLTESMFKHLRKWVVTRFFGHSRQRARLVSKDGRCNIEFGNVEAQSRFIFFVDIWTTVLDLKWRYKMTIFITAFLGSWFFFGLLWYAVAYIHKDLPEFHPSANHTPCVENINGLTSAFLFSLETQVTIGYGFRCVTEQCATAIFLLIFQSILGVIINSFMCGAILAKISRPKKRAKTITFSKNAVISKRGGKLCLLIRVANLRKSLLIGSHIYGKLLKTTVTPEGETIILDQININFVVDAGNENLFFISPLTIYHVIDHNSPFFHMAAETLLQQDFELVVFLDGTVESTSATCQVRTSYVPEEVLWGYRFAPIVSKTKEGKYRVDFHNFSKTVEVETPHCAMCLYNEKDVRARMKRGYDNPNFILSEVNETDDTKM
From the text: as §1
Chinese hamster ovary cells stably expressing Kir1.1 channels were maintained in T-75 flasks in cell culture media in a humidified 10% CO2 incubator at 37° C. Prior to an experiment, Kir1.1 expression was induced by overnight incubation with 1 mM sodium butyrate. […] After centrifugation, the cell pellet was resuspended in approximately 4.0 ml of bath solution and placed in the IonWorks® instrument. The intracellular solution consisted of (in mM): 80 K gluconate, 40 KCl, 20 KF, 3.2 MgCl2, 3 EGTA, 5 Hepes, pH 7.4. Electrical access to the cytoplasm was achieved by perforation in 0.13 mg/ml amphotericin B for 4 minutes.
Voltage protocols and current recordings were performed using the IonWorks® HT software/hardware system. Currents were sampled at 1 kHz. No correction for liquid junction potentials was used. The test pulse, consisting of a 100 ms step to 0 mV from a holding potential of −70 mV, followed by a 100 ms voltage ramp from −70 mV to +70 mV, was applied before and after a 6 minutes compound incubation period. Test compounds were prepared by diluting DMSO stock solutions into the bath solution at 3× the final concentration and placed in the instrument in 96-well polypropylene plates. Current amplitudes were measured using the IonWorks® software.
A general note: The patch-clamp technique gives a direct electrical read-out from membranes.

The mark [1] stands for this setting: Chinese hamster ovary cells stably expressing Kir1.1, block during voltage step to 0 mV, 6 minutes compound incubation, read-out: EP Assay IC50.

Chain of hROMK (hKir1.1) (P48048 whole entry): as the sequence (P48048 whole entry, species assumed) above

By IC50 is commonly meant the concentration at which inhibition is half-maximal. With `Cc1c([C@@H](O)CN2CCCCC2CNCC(O)c2ccc(C#N)cn2)ccc2c1COC2=O` (stereo partly drawn) [Example 13, 6-{1-Hydroxy-2-[({1-[(2R)-2-hydroxy-2-(4-methyl-1-oxo-1,3-dihydro-2-benzofuran-5-yl)ethyl]piperidin-2-yl}methyl)amino]ethyl}pyridine-3-carbonitrile], the IC50 was determined as 162 nM against hROMK (hKir1.1) and 269 nM on Kir1.1 (ROMK1) (setting [1]).

For the compound `Cc1c([C@@H](O)CN2CC(CNS(=O)(=O)c3ccc(C#N)cc3)C2)ccc2c1COC2=O` [Example 14, (R)-4-Cyano-N-((1-(2-hydroxy-2-(4-methyl-1-oxo-1,3-dihydroisobenzofuran-5-yl)ethyl)azetidin-3-yl)methyl)benzenesulfonamide], the IC50 on hROMK (hKir1.1) came out at 122 nM; at Kir1.1 (ROMK1) (setting [1]), 150 nM.

For the compound `Cc1c([C@@H](O)CN2CC[C@@H](NS(=O)(=O)c3ccc(C#N)cc3)C2)ccc2c1COC2=O` [Example 15, 4-Cyano-N—((R)-1-((R)-2-hydroxy-2-(4-methyl-1-oxo-1,3-dihydroisobenzofuran-5-yl)ethyl)pyrrolidin-3-yl)benzenesulfonamide], the results for the IC50 on hROMK (hKir1.1) and on Kir1.1 (ROMK1) (setting [1]) were 639 nM and 1390 nM, respectively.

As to `Cc1c([C@@H](O)CN2CCCC2CNc2ccc(C#N)cn2)ccc2c1COC2=O` (stereo partly shown) [Example 18], the 50% inhibitory concentration (IC50) at hROMK (hKir1.1) turned out to be 534 nM; on Kir1.1 (ROMK1) (setting [1]), 65 nM.

Turning to `Cc1c([C@@H](O)CN2CCCC2CNS(=O)(=O)c2ccc(-n3cnnn3)cc2)ccc2c1COC2=O` (stereo partly drawn) [Example 19, N-((1-((R)-2-Hydroxy-2-(4-methyl-1-oxo-1,3-dihydroisobenzofuran-5-yl)ethyl)pyrrolidin-2-yl)methyl)-4-(1H-tetrazol-1-yl)benzenesulfonamide], the IC50 at hROMK (hKir1.1) amounted to 206 nM; on Kir1.1 (ROMK1) (setting [1]) it was 245 nM.

Take `Cc1c([C@@H](O)CNC2CCCN(c3ccc(C#N)cn3)C2)ccc2c1COC2=O` (stereo partly drawn) [Example 20, 6-(3-((R)-2-Hydroxy-2-(4-methyl-1-oxo-1,3-dihydroisobenzofuran-5-yl)ethylamino)piperidin-1-yl)nicotinonitrile]: the IC50 was determined as 265 nM at hROMK (hKir1.1) and 52 nM at Kir1.1 (ROMK1).

As to `Cc1c([C@@H](O)CN2CCC(C)(CNc3ccc(C#N)cn3)C2)ccc2c1COC2=O` (stereo partly drawn) [Example 21, 6-((1-((R)-2-Hydroxy-2-(4-methyl-1-oxo-1,3-dihydroisobenzofuran-5-yl)ethyl)-3-methylpyrrolidin-3-yl)methylamino)nicotinonitrile], the IC50 on hROMK (hKir1.1) came out at 547 nM; on Kir1.1 (ROMK1) (setting [1]) it was 103 nM.

Consider `Cc1c([C@@H](O)CN2CCC(CNc3ccc(C#N)cn3)(c3ccccc3)C2)ccc2c1COC2=O` (stereo partly drawn) [Example 22, 6-((1-((R)-2-Hydroxy-2-(4-methyl-1-oxo-1,3-dihydroisobenzofuran-5-yl)ethyl)-3-phenylpyrrolidin-3-yl)methylamino)nicotinonitrile], for which the figures for the half-inhibitory concentration (IC50) against hROMK (hKir1.1) and on Kir1.1 (ROMK1) (setting [1]) were 808 nM and 340 nM, respectively.
